Data published in publication PMC4263429 (Biochemistry, 2014).

Columns and labels:
[1] = tested on: type 1 dehydratase from P. asaccharolyticus; conditions: cited from earlier work
[2] = tested on: type 2 dehydratase from E. coli; conditions: cited from earlier work
[3] = tested on: N[C@@H](CO)C(=O)O; assay: purified protein, by the assay type

Compound	type of inhibition [1]	type of inhibition [2]	kcat/Km [3] [M⁻¹ s⁻¹]
N[C@@H](CS)C(=O)O [L-cysteine]	competitive inhibitor	competitive inhibitors	
(Legionella pneumophila str. Lens)			165000 ± 8000
N[C@H](CO)C(=O)O [D-serine]		competitive inhibitors	
